Test results taken from US20150094327A1, “COMPOSITIONS AND METHODS FOR […]” (priority 2012, published 2015).
“Also recorded” adds a separate entry of the source. Where two headings read alike, the source gives them in different places.

Columns and labels:
fowlpox resolvase = experiment: Holliday junction substrate cleavage by fowlpox resolvase, gel based assay; type: biochemical, fowlpox virus; conditions: authentic Holliday junction substrates in vitro
[1] = Cytotoxicity, CellTiter-Glo Luminescent Cell Viability Assay; conditions: for Cytotoxicity, LD50: CellTiter-Glo; for cytotoxicity: compared with compound 1
vaccinia virus WR = experiment: microbe, parasite or virus in culture; type: cell-based; conditions: for IC50: Orthopoxvirus vaccinia
fowlpox virus resolvase = target: T1, fowlpox virus resolvase (Fowlpox virus, UniProt Q9J546); experiment: Fluorescence polarization (FP) assay of bulged DNA substrate cleavage by fowlpox resolvase; type: biochemical; conditions: for IC50: off-center bulge substrate 2 nM, 10 nM fowlpox resolvase, 37° C., 1 hr; for activity in the FP assay: compared with compound 1 or with the N-hydroxy parent
T1 sequence (Q9J546 1-156): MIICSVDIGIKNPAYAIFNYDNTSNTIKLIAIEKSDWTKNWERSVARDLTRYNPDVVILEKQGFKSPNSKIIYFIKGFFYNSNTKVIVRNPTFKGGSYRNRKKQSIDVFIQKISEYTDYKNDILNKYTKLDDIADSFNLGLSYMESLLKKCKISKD

variola topoisomerase = variola topoisomerase (Variola virus, UniProt P32989); type: biochemical
Sequence of variola topoisomerase (P32989 whole entry, looked up): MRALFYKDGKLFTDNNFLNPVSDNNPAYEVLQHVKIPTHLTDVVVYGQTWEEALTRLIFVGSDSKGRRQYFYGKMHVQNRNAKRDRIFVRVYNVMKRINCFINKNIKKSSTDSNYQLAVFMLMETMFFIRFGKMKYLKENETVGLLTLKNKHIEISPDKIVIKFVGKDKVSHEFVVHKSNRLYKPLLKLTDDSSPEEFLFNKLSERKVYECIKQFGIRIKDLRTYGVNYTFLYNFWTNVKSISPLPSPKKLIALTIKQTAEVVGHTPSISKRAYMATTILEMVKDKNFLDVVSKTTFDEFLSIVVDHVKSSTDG

[2] = 48 h, read-out: Antiviral assay, IC50

SMILES | inhibition of Holliday junction cleavage (fowlpox resolvase) | Cytotoxicity, LD50 [1] [µM] | IC50 (vaccinia virus WR; [2]) [µM] | IC50 (vaccinia virus WR; read-out: antiviral assays IC50) [µM] | IC50 (fowlpox virus resolvase) [µM] | Log P (Log P (hydrophobicity)) | activity in the FP assay (fowlpox virus resolvase) | cytotoxicity [1] | inhibition of variola topoisomerase activity (variola topoisomerase) | antiviral activity (vaccinia virus WR)
O=c1c(-c2ccccc2)c(O)c2cc(-c3cccc(-c4ccccc4)c3)cnc2n1O [Compound 1, 6-(Biphenyl-3-yl)-1,4-dihydroxy-3-phenyl-1,8-naphthyridin-2(1/H)-one] | effective inhibition | 13 ± 4 | 4 ± 1 | 4 | – | – | – | – | – | –
CCOC(=O)c1c(O)c2cc(CCc3ccc(C(F)(F)F)cc3)cnc2n(O)c1=O [Compound 5, Ethyl 1,4-dihydroxy-2-oxo-6-(4-(trifluoromethyl)phenethyl)-1,2-dihydro-1,8-naphthyridine-3-carboxylate] | – | 20 ± 12 | 12 ± 1 | – | 14 ± 7 | 3.60 | – | – | – | –
CCOC(=O)c1c(O)c2cc(-c3cccc(OC)n3)cnc2n(OCc2ccccc2)c1=O [Compound 8, Ethyl 1-(benzyloxy)-4-hydroxy-6-(6-methoxypyridin-2-yl)-2-oxo-1,2-dihydro-1,8-naphthyridine-3-carboxylate] | – | – | > 350 | – | > 250 | 3.54 | abolished activity | – | – | –
O=c1c(-c2ccccc2)c(O)c2cc(/C=C/c3ccc(C(F)(F)F)cc3)cnc2n1OCc1ccccc1 [Compound 3] | – | – | > 350 | – | > 250 | 6.85 | – | – | – | –
CCOC(=O)c1c(O)c2cc(/C=C/c3ccc(C(F)(F)F)cc3)cnc2n(OCc2ccccc2)c1=O [Compound 6, (E)-Ethyl 1-(benzyloxy)-4-hydroxy-2-oxo-6-(4-(trifluoromethyl)styryl)-1,2-dihydro-1,8-naphthyridine-3-carboxylate] | – | – | > 350 | – | > 250 | 5.50 | abolished activity | – | – | –
COc1ccc(CCc2cnc3c(c2)c(O)c(-c2ccccc2)c(=O)n3O)cc1 [Compound 4, 1,4-Dihydroxy-6-(4-methoxyphenethyl)-3-phenyl-1,8-naphthyridin-2(1H)-one] | – | 10 ± 1 | 11 ± 1 | – | – | – | slightly less potent | no reduction in cytotoxicity | – | –
O=c1c(-c2ccccc2)c(O)c2cc(CCc3ccc(C(F)(F)F)cc3)cnc2n1O [Compound 2, 1,4-Dihydroxy-3-phenyl-6-(4-(trifluoromethyl)phenethyl)-1,8-naphthyridin-2(1H)-one] | – | 15 ± 12 | 4 ± 1 | – | 3 ± 2 | 4.94 | slightly less potent | no reduction in cytotoxicity | – | –
CCOC(=O)c1c(O)c2cc(-c3cccc(OC)n3)cnc2n(O)c1=O [Compound 7, Ethyl 1,4-dihydroxy-6-(6-methoxypyridin-2yl)-2-oxo-1,2-dihydro-1,8-naphthyridine-3-carboxylate] | inhibition of cleavage | 156 ± 28 | 25 ± 16 | – | 11 ± 2 | 1.43 | slight increase over compound 1 | greatly increased | no Inhibitory activity; also recorded: lack of inhibition | slightly increased; also recorded: showed antiviral activity at concentrations below cytotoxic levels
